The record followed here is PubChem BioAssay AID1963969 (Molecular Pharmacology Branch, DTP, NCI, 2024).

Where “and” joins values, the source holds several entries; their conditions need not be identical. Equal values may be shown once.

As usually defined, the viability, T/C is the result in the treated group divided by that in the control group, in per cent. The IC50 is the concentration needed to halve the response being measured.

In the test the test system is 817829-284-R-J1-PDC multi-cell spheroid viability. Put plainly: Anticancer human tumor 817829-284-R-J1-PDC patient-derived colon adenocarcinoma cell line growth inhibition [PI3K]. The conditions noted are these: for viability, T/C: stronger effect = lower value. The method, boiled down: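 Multi-cell spheroids combine tumor cells with HUVEC and human MSCs, treated with targeted agents alone or with inavolisib, alpelisib, duvelisib or copanlisib. Concentrations fall in half-log steps from at or near clinical Cmax, or from 10 microM where Cmax is unknown; viability read-out.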
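Note: spheroids exposed to agents for seven days before readout.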
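Throughout, for viability, T/C: percent of vehicle DMSO control viability which is 100%.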

Take `C=CC(=O)N1CCN(c2nc(=O)n(-c3c(C)ccnc3C(C)C)c3nc(-c4c(O)cccc4F)c(F)cc23)C(C)C1` (stereo not given): the viability, T/C is, setting by setting: (compound 0.0316 µM) 90.5% and 112%; (compound 0.1 µM) 107% and 70.5%; (compound 0.316 µM) 70.2% and 97.6%; (compound 1 µM) 104% and 120%; (compound 3.16 µM) 85.3% and 104%; (compound 10 µM) 44.3% and 48.8%. For the setting “curve of compound”, the IC50 is 8660 nM and 9740 nM.

As to `CC1(C)CCC(Nc2ncc(C(F)(F)F)c(-c3c[nH]c4c(P(C)(C)=O)c(C#N)ccc34)n2)CN1` (stereo not given) + CC(Nc1ccc2c(c1)OCCn1cc(N3C(=O)OCC3C(F)F)nc1-2)C(N)=O, the IC50 (curve of first compound, second compound 0.00316 µM) is under 31.6 nM; the IC50 (curve of first compound, second compound 0.01 µM) is under 31.6 nM; the IC50 (curve of first compound, second compound 0.0316 µM) was under 31.6 nM; the 50% inhibitory concentration (IC50) (curve of first compound, second compound 0.1 µM) was under 31.6 nM; the IC50 (curve of first compound, second compound 0.316 µM) is under 31.6 nM; the half-maximal inhibitory concentration (IC50) (curve of first compound, second compound 1 µM) was under 31.6 nM. Moreover, the viability, T/C by setting is: (second compound 0.00316 µM, first compound 0.0316 µM) 27.5%; (second compound 0.00316 µM, first compound 0.1 µM) 24.9%; (second compound 0.00316 µM, first compound 0.316 µM) 36.7%; (second compound 0.00316 µM, first compound 1 µM) 28.7%; (second compound 0.00316 µM, first compound 3.16 µM) 30%; (second compound 0.00316 µM, first compound 10 µM) 0.96%. For the same compound, the viability, T/C was 26.9% (second compound 0.01 µM, first compound 0.0316 µM); 25.7% (second compound 0.01 µM, first compound 0.1 µM); 25.2% (second compound 0.01 µM, first compound 0.316 µM); 33.6% (second compound 0.01 µM, first compound 1 µM); 26.4% (second compound 0.01 µM, first compound 3.16 µM); 1.03% (second compound 0.01 µM, first compound 10 µM). In addition, the viability, T/C is, setting by setting: (second compound 0.0316 µM, first compound 0.0316 µM) 24.1%; (second compound 0.0316 µM, first compound 0.1 µM) 28.1%; (second compound 0.0316 µM, first compound 0.316 µM) 25.9%; (second compound 0.0316 µM, first compound 1 µM) 32%; (second compound 0.0316 µM, first compound 3.16 µM) 24.6%; (second compound 0.0316 µM, first compound 10 µM) 0.85%. For the same compound, the viability, T/C by setting is: (second compound 0.1 µM, first compound 0.0316 µM) 25.2%; (second compound 0.1 µM, first compound 0.1 µM) 28.4%; (second compound 0.1 µM, first compound 0.316 µM) 32.1%; (second compound 0.1 µM, first compound 1 µM) 27.7%; (second compound 0.1 µM, first compound 3.16 µM) 29.2%; (second compound 0.1 µM, first compound 10 µM) 1.66%. Besides, the viability, T/C (second compound 0.316 µM, first compound 0.0316 µM) is 23.4%; the viability, T/C (second compound 0.316 µM, first compound 0.1 µM) was 28.7%; the viability, T/C (second compound 0.316 µM, first compound 0.316 µM) was 26%; the viability, T/C (second compound 0.316 µM, first compound 1 µM) was 22.8%; the viability, T/C (second compound 0.316 µM, first compound 3.16 µM) was 27.9%; the viability, T/C (second compound 0.316 µM, first compound 10 µM) was 1.09%. Moreover, the viability, T/C was 21.7% (second compound 1 µM, first compound 0.0316 µM); 24.1% (second compound 1 µM, first compound 0.1 µM); 25.8% (second compound 1 µM, first compound 0.316 µM); 26.2% (second compound 1 µM, first compound 1 µM); 26.6% (second compound 1 µM, first compound 3.16 µM); 1.56% (second compound 1 µM, first compound 10 µM).

For the compound `CCN1CCN(Cc2ccc(Nc3ncc(F)c(-c4cc(F)c5nc(C)n(C(C)C)c5c4)n3)nc2)CC1`, the viability, T/C runs as follows: (compound 0.00316 µM) 81.3% and 60.8%; (compound 0.01 µM) 103% and 82.2%; (compound 0.0316 µM) 61.9% and 73.5%; (compound 0.1 µM) 68.2% and 59.2%; (compound 0.316 µM) 55.8% and 49.5%; (compound 1 µM) 58% and 51%. Besides, the IC50 (curve of compound) was over 1000 nM.

Take `Cn1ncnc1[C@H]1c2n[nH]c(=O)c3cc(F)cc(c23)N[C@@H]1c1ccc(F)cc1`: the viability, T/C (compound 0.000316 µM) was 113% and 70.3%; the viability, T/C (compound 0.001 µM) was 106% and 90.1%; the viability, T/C (compound 0.00316 µM) is 83.9% and 67%; the viability, T/C (compound 0.01 µM) is 75.3%; the viability, T/C (compound 0.0316 µM) is 55.6% and 55%; the viability, T/C (compound 0.1 µM) is 41.3% and 46.6%. Under “curve of compound”, the IC50 is 51.4 nM and 62.8 nM.

As to `CC1(C)CCC(Nc2ncc(C(F)(F)F)c(-c3c[nH]c4c(P(C)(C)=O)c(C#N)ccc34)n2)CN1` (stereo not given), the viability, T/C runs as follows: (compound 0.0316 µM) 25.3% and 24.7%; (compound 0.1 µM) 25% and 26.2%; (compound 0.316 µM) 27.4% and 32.9%; (compound 1 µM) 30.6% and 31.8%; (compound 3.16 µM) 32.7% and 38.6%; (compound 10 µM) 0.65% and 1.29%. Besides, the IC50 (curve of compound) was under 31.6 nM.
